Like-named read-outs stand apart in the source and are kept apart here.

The nature of data set [1]: Cell viability, MTT assay, with LPS treatment. The data set is classed as cell-based, murine. The settings on record: mouse, RAW 264.7 cells, MTT, LPS 1 µg/mL, 24 h, mean ± SD, n = 3. Here is the method:
(§1) In this work, all isolated compounds (1–22) were evaluated for their inhibition of nitric oxide (NO) production in RAW264.7 cells activated by lipopolysaccharide (LPS) using the Griess assay with indomethacin as a positive control (Table 3). […] To investigate whether the inhibitory activities of the active compounds were due to their cytotoxicity, the effects of the tested compounds on cell proliferation/viability were evaluated using the MTT method. […] Therefore, further studies are required to clarify the underlying mechanism of the active compounds.
(§2) Cell viability was measured using the conventional MTT assay. RAW 264.7 cells were seeded in 96-well plates at a density of 1.5 × 10^5 cells/mL. After 12 h, the cells were treated with LPS (1 µg/mL) and samples, followed by additional incubation for 24 h at 37 °C. MTT stock solution (2 mg/mL) was added to wells for a total reaction volume of 110 µL. After 4 h incubation, the supernatants were aspirated. The formazan crystals in each well were dissolved in 50 µL of DMSO, and the absorbance was measured using a microplate reader (Multiskan GO, Thermo Scientific, Waltham, MA, USA) at the wavelength of 490 nm. Relative cell viability was evaluated based on the quantity of MTT converted to the insoluble formazan salt. The optical density of formazan generated in the control cells represented 100% viability. The data were expressed as mean percentages of the viable cells compared to the respective control.
On the technique in general: Tetrazolium dyes change colour on reduction, which living cells bring about.

Data set [2] concerns NO production in RAW264.7 cells activated by lipopolysaccharide. As to the kind of experiment: Inhibition of NO production in LPS-activated RAW264.7 cells (Griess assay). The data set is classed as cell-based, murine. The settings on record: for SI, selectivity index, calculated by CC50/IC50: CC50 (MTT) / IC50 (NO production); for IC50: read-out: IC50, inhibition of LPS-induced NO production. Here is the method:
After pre-incubation of RAW 264.7 cells (1.5 × 10^5 cells/mL) with LPS (1 µg/mL) and samples at 37 °C for 24 h, the quantity of nitrite accumulated in the culture medium was measured as an indicator of NO production. Briefly, 50 µL of cell culture medium were mixed with 100 µL Griess reagent, and incubated at room temperature for 10 min. The absorbance was determined at 540 nm wavelength with a microplate reader (Multiskan GO, Thermo Scientific, Waltham, MA, USA).

In another data set the test system is RAW 264.7 cells. Nature of the data set: Cell viability, MTT assay, with LPS treatment. The format is cell-based, murine. The settings on record: up to 100 μM, with LPS treatment for 24 h. Here is the method:
as §1, §2

Data set [3] relates to RTX-induced mouse ear edema. Further details: method as in PMID 10840958. The settings on record: 50 µg per ear, topical; cited from earlier work.
The test system of data set [4] is spontaneous synchronous Ca^2+ oscillations. Further details: method as in PMID 32237750. The following applies: cited from earlier work.
The test system of data set [5] is indoleamine 2,3-dioxygenase 1 (IDO1). Also on record: method as in doi:10.1039/C9QO00775J. The settings on record: cited from earlier work.
In a further data set the test system is C. albicans. Further details: method as in PMID 22377027. The settings on record: against C. albicans; cited from earlier work.
Data set [6] deals with iNOS and COX-2 proteins and mRNA expressions in RAW 264.7 macrophages. Further details: method as in not given. The settings on record: ref not given; cited from earlier work.
The test system of data set [7] is NO production in lipopolysaccharide activated RAW264.7 cells. Also on record: method as in PMID 29197643. The settings on record: LPS-activated RAW264.7 cells, in vitro; read-out: IC50, inhibition of NO production; cited from earlier work.
Where [8] appears, read: RAW 264.7 cells activated with LPS.
The mark [9] stands for this setting: Mus musculus, RAW264.7, 24 h, RAW 264.7 cells, LPS 1 µg/mL, 24 h, Griess assay, mean ± SD, n = 3.
Where [10] appears, read: RAW 264.7 cells, LPS 1 µg/mL, 24 h, Griess assay, mean ± SD, n = 3.

Usually CC50 stands for the concentration giving 50% cytotoxicity. Read a high CC50 as better tolerance by the cells. Usually IC50 stands for the midpoint of a concentration-inhibition curve. On to `COc1cc(O)c2c(c1)C1(OC2=O)C(C)=CC(=O)C1O` (racemic) [Compound 10, ±talaroflavone], for which half-maximal cytotoxicity in data set [1] (setting [8]) (CC50 at 24 h) was put at 27.2 ± 1.6 µM. Further, the “SI, selectivity index, calculated by CC50/IC50” value in [2] (RAW 264.7 cells) is 1.1. The 50% inhibitory concentration (IC50) in data set [2] (setting [9]) is 23.9 ± 3.3 µM.

As to `CC(O)C(C)OC(=O)CC1OC(=O)c2c(O)cccc21` (centres unmarked) [Compound 1, alternabenzofuran A], the CC50 at 24 h in data set [1] (setting [8]) was greater than 100 µM. Also, in data set [2] (setting [9]), the IC50 is greater than 50 µM.

Regarding `C[C@H](O)[C@@H](C)OC(=O)C[C@@H]1OC(=O)c2c(O)cccc21` [Compound 2, alternabenzofuran B], the CC50 at 24 h in [1] (setting [8]) is greater than 100 µM. Also, the “Cytotoxicity (cell proliferation/viability, MTT)” value with RAW 264.7 cells is given as “did not show any significant cytotoxicity”. Also, in data set [2] (setting [9]), the concentration for half-maximal inhibition (IC50) amounted to 18.7 ± 2.35 µM.

`CC1=CC(=O)C2(C)CCCC(C)(CO)C23CC13` (centres unmarked) [Compound 3, alternaterpenoid A] showed a CC50 at 24 h in data set [1] (setting [8]) of 24.9 ± 1.2 µM. Further, the “SI, selectivity index, calculated by CC50/IC50” value in data set [2] (RAW 264.7 cells) is given as 10.4.

As to `CC1(C)CCCC2(C)C(=O)C=C(CO)C3CC312` (centres unmarked) [Compound 4, alternaterpenoid B], the CC50 at 24 h in data set [1] (setting [8]) was greater than 100 µM. Further, the IC50 in data set [2] (setting [9]) was roughly 50 µM.

On to `COC(=O)C[C@@H]1OC(=O)c2c(O)cccc21` [Compound 5, isobenzofuranone A], for which, in [1] (setting [8]), the CC50 at 24 h is greater than 100 µM. In addition, in [2] (setting [9]), the half-maximal inhibitory concentration (IC50) came to 41.1 ± 4.78 µM.

Turning to `COc1cc(O)c2c(c1)C1=C(O)C(=O)C[C@@]1(C)OC2=O` [Compound 7, (R)-1,6-dihydroxy-8-methoxy-3a-methyl-3,3a-dihydrocyclopenta[c]isochromene-2,5-dione], the 50% cytotoxic concentration (CC50) at 24 h in data set [1] (setting [8]) was 20.6 ± 2.3 µM. Further, the “SI, selectivity index, calculated by CC50/IC50” value in [2] (RAW 264.7 cells) is listed as 4.0. Also, the IC50 in [2] (setting [9]) was less than 10 µM; in [2] (setting [10]), 5.2 ± 1.96 µM.

For `COc1cc(O)c2c(=O)oc3c(c2c1)[C@@H](C)CC3=O` [Compound 8, dihydroaltenuenes A], in [1] (setting [8]), the 50% cytotoxic concentration (CC50) at 24 h is greater than 100 µM. Further, the IC50 in data set [2] (setting [9]) was greater than 50 µM.

Regarding `COc1cc(O)c2c(=O)oc3c(c2c1)[C@@H](C)C[C@@H]3O` [Compound 9, phialophriol], the CC50 at 24 h in data set [1] (setting [8]) is greater than 100 µM. Also, the “Cytotoxicity (cell proliferation/viability, MTT)” value in the data set with RAW 264.7 cells is “did not show any significant cytotoxicity”.

Consider `COc1cc(O)c2c(=O)oc3cc(O)cc(C)c3c2c1` [Compound 11, alternariol-9-O-methyl ether], for which, in data set [1], the CC50 at 24 h is greater than 100 µM. Besides, in the data set on RAW 264.7 cells, the “Cytotoxicity (cell proliferation/viability, MTT)” value is on record as “did not show any significant cytotoxicity”. Besides, in data set [2] (Mus musculus, RAW264.7, 24 h), the half-inhibitory concentration (IC50) worked out at 39 ± 1.92 µM.

As for `Cc1cc(O)cc2oc(=O)c3c(O)cc(O)cc3c12` [Compound 12, alternariol], in [1], the CC50 at 24 h was 50.4 ± 2.1 µM. In addition, the “SI, selectivity index, calculated by CC50/IC50” value in data set [2] (RAW 264.7 cells) is listed as 3.0. Further, the IC50 in data set [2] (Mus musculus, RAW264.7, 24 h) was found to be 16.6 ± 1.6 µM.

Compound `COc1cc(O)c2c(=O)oc3cc(O)c(C)cc3c2c1` [Compound 13, 2-methyl-9-methoxy alternariol] gave a 50% cytotoxic concentration (CC50) at 24 h in data set [1] of 48.2 ± 2.6 µM. In addition, the “SI, selectivity index, calculated by CC50/IC50” value in [2] (RAW 264.7 cells) is 2.0. Moreover, the IC50 in data set [2] (Mus musculus, RAW264.7, 24 h) stood at 24.5 ± 4.51 µM.

`COc1cc(O)c2c(=O)oc3c(O)c(O)cc(C)c3c2c1` [Compound 14, 3’-hydroxyalternariol 5-O-methyl ether] gave a CC50 in [1] greater than 100 µM. For the same compound, in the data set with RAW 264.7 cells, the “Cytotoxicity (cell proliferation/viability, MTT)” value was “did not show any significant cytotoxicity”. The 50% inhibitory concentration (IC50) in data set [2] (setting [9]) is less than 10 µM; in [2] (setting [10]), 5.9 ± 0.48 µM.

Consider `COc1cc(O)c2c(=O)oc3cc(CO)cc(O)c3c2c1` [Compound 15, alternariol-1’-hydroxy-9-methyl ether], for which half-maximal cytotoxicity in [1] (CC50 at 24 h) was put at 48.7 ± 1.8 µM. The “SI, selectivity index, calculated by CC50/IC50” value in [2] (RAW 264.7 cells) is reported as 1.9. The concentration for half-maximal inhibition (IC50) in data set [2] (Mus musculus, RAW264.7, 24 h) is 26.3 ± 3.99 µM.

For `COc1cc(O)c2c(c1)C1=CC(=O)C(O)=CC1(C)OC2=O` (centres unmarked) [Compound 16, dehydroaltenusin], the IC50 in [2] (setting [9]) fell in the range of 1.3 to 41.1 µM.

In data set [1], `COc1cc(O)c2c(c1)-c1cc(O)c(O)cc1COC2=O` [Compound 17, alteryulactone] showed a cytotoxic concentration (CC50) at 24 h greater than 100 µM. Also, in the data set on RAW 264.7 cells, the “Cytotoxicity (cell proliferation/viability, MTT)” value is reported as “did not show any significant cytotoxicity”. The IC50 in [2] (Mus musculus, RAW264.7, 24 h) amounted to 16.2 ± 2.62 µM.

For `COC(=O)C1Cc2cccc(O)c2C(=O)O1` (centres unmarked) [Compound 18, tenuissimasatin], in data set [1] (setting [8]), the midpoint of cytotoxicity, the CC50 at 24 h, lay at 28.3 ± 2.5 µM. For the same compound, in data set [2] (RAW 264.7 cells), the “SI, selectivity index, calculated by CC50/IC50” value is listed as 1.2. Also, in data set [2] (setting [9]), the half-inhibitory concentration (IC50) amounted to 24.5 ± 1.06 µM.

The compound `COc1cc(O)c(C(=O)O)c(-c2cc(O)c(O)cc2C)c1` [Compound 20, altenusin] had a 50% cytotoxic concentration (CC50) at 24 h in [1] greater than 100 µM. In addition, the half-maximal inhibitory concentration (IC50) in [2] (Mus musculus, RAW264.7, 24 h) stood at 25.4 ± 3.03 µM.

As to `Cc1cc(=O)c2c(C)cc(O)cc2o1` [Compound 21, 2,5-dimethyl-7-hydroxychromone], the CC50 at 24 h in data set [1] (setting [8]) turned out to be 17.3 ± 2.2 µM. In data set [2] (RAW 264.7 cells), the “SI, selectivity index, calculated by CC50/IC50” value is listed as 1.2. Moreover, the 50% inhibitory concentration (IC50) in [2] (setting [9]) is 14.9 ± 1.92 µM.

Turning to `C[C@H]1CC(=O)OC[C@H]1O` [Compound 22, walterolactone C], the CC50 at 24 h in [1] (setting [8]) worked out at 46.4 ± 1.7 µM. Moreover, the “SI, selectivity index, calculated by CC50/IC50” value in data set [2] (RAW 264.7 cells) is on record as 3.1. Moreover, the half-maximal inhibitory concentration (IC50) in [2] (setting [9]) was determined as 14.9 ± 1.92 µM.

`CCC(C)[C@]1(O)NC(=O)[C@@H](C)n2c1nc1c(c2=O)C=C(OC)C=CO1` (some centres unmarked) [Oxepinamide A]: in [3], the “Inhibition rate, ear edema” value is on record as 82%.

`C=C1CC[C@H]2C(C)(C)[C@@H](O)CC[C@]2(C)[C@H]1CC(=O)[C@]1(O)C=C(CSC[C@H](O)C(=O)OC)C(=O)C1` [alternarin A]: in data set [4], the “Inhibition of spontaneous synchronous Ca2+ oscillations” value is “effective inhibition”.

On to `COC1=CC(=O)c2c(O)c3c(c4c2[C@]12CC(=O)C[C@H]2[C@@]1(C[C@H](O)[C@H](O)CO1)O4)C[C@](C)(O)[C@H](O)C3` [anthrininone A], for which the “Inhibition activity against IDO1” value in data set [5] is “significant inhibition activity”.

As to `COc1cc([C@H](Cc2ccccc2)NC(C)=O)oc(=O)c1` [pyrophen], in the data set with C. albicans, the Anti-fungal activity result was “displayed anti-fungal activity”.

`CC1=C[C@@H](O)[C@H]2C[C@@H](C)C[C@@H](C)[C@@H]2[C@H]1/C=C/C=C/C(=O)O` [tanzawaic acid Q]: the “Effect on LPS-induced iNOS and COX-2 proteins and mRNA expressions” value in [6] is listed as “inhibited”.

Amestolkolides B: the IC50 in [7] was 1.6 ± 0.1 µM.

Values taken from article PMC7460390, “Secondary Metabolites with Nitric Oxide Inhibition from Marine-Derived Fungus Alternaria sp. 5102” (Marine Drugs, 2020).
